Laboratory results from PubChem BioAssay AID2060496 (Molecular Pharmacology Branch, DTP, NCI, 2025).
Several values for one entry are separate records, joined by “and”; a condition that tells them apart may be missing. Equal entries are not always repeated.

System: 276233-004-R-J1-PDC complex spheroid viability
Assay: Anticancer human tumor 276233-004-R-J1-PDC patient-derived colon adenocarcinoma cell line growth inhibition [GQUAD]
Conditions: for viability, T/C: stronger effect = lower value
Text: DNA G-quadruplex Stabilizer Agents in Combinations in Complex Spheroids
A high-throughput screen of multi-cell type tumor spheroids was designed to identify active combinations of DNA G-quadruplex stabilizer agents and targeted small molecules. Complex spheroids include a stromal component modeled by human endothelial cells (HUVEC) and fibroblasts modeled by human mesenchymal stem cells (MSCs). The concentration ranges selected for each drug and investigational agent were based upon clinically achievable concentrations if the clinical Cmax of the agent was known.
Compounds. The drugs and investigational agents: pidnarulex (CX-5461; NSC782164), APTO-253 (NSC789042), BRACO-19 (NSC847499), peposertib (NSC802822), ceralasertib (NSC780249), elimusertib (NSC800525), camonsertib (NSC841442), AZD-1390 (NSC803789), olaparib (NSC753686), talazoparib (NSC767125), ART-558 (NSC835418), sotorasib (NSC818433), MRTX-1133 (NSC836407), SN-38 (NSC673596), topotecan (NSC609699), etoposide (NSC141540), doxorubicin (NSC123127), gemcitabine (NSC613327), 5-fluorouracil (NSC19893), paclitaxel (NSC125973), vemurafenib (NSC761431), panobinostat (NSC761190), R-306465 (JNJ-16241199; NSC773264), adavosertib (NSC754352), TP-3654 (NSC805149), carboplatin (NSC241240), KSQ-4279 (NSC840948), and staurosporine (NSC755774) were obtained from the National Cancer Institute (NCI) Developmental Therapeutics Program Chemical Repository (34). The FDA-approved anticancer drug set is available from the NCI Developmental Therapeutics Program. […] The stock solutions were prepared in dimethyl sulfoxide (DMSO, Sigma-Aldrich, St. Louis, MO, cat. D2650) at 800-fold the tested concentration and stored at -70 degrees C prior to their use. All drugs and investigational agents were tested over a range starting from a high concentration at or near the clinical Cmax and decreasing in half-log increments. If the clinical Cmax for an agent had not been determined, the highest concentration tested was 10 microM.
2.3 Cell Culture. All cells were maintained in an incubator at 37 degrees C and 5% CO2 with 95% humidity. The PDC lines were cultured according to standard operating procedures established by the NCI PDMR. All PDCs were thawed and cultured in Matrigel-coated flasks prepared with a working solution of 1X Ham's F-12 nutrient mix, without supplementation (Invitrogen, cat. 11765054), 100 U/mL penicillin-streptomycin (Invitrogen, cat. 15140122), and 2.5% Matrigel (Corning Inc., cat. 354248) for the first three passages. The 857933-349-R-J2-PDC line was cultured in 6C/Colon 1B media, which includes advanced DMEM/F-12 (Thermo Fisher Scientific, cat. 12634028), 10 mM HEPES (Thermo Fisher Scientific, cat. 15630080), 1X GlutaMAX supplement (Thermo Fisher Scientific, cat. 35050061), 0.1 mg/mL primocin (InvivoGen, cat. ant-pm-2), 10% defined fetal bovine serum, heat inactivated (HyClone Laboratories Inc., cat. SH30070.03HI), 50% L-WRN conditioned media (ATCC, cat. CRL-3276), 1.25 mM N-Acetyl-L-cysteine (Sigma-Aldrich, cat. A9165), 10 mM nicotinamide (Sigma-Aldrich, cat. N0636), 1X B-27 supplement (Thermo Fisher Scientific, cat. 17504044), 1X N-2 supplement (Thermo Fisher Scientific, cat. 17502048), 10 microM Y-27632 dihydrochloride (Tocris Bioscience, cat. 1254), and 50 ng/mL human EGF recombinant protein (Thermo Fisher Scientific, cat. PHG0311). The 485176-168-R4-J1-PDC line was cultured in Panc media, which includes all 6C/Colon 1B media components plus 100 ng/mL human FGF-10 (Thermo Fisher Scientific, cat. 100-26), 500 nM SB-431542 (Selleckchem, cat. S1067), and gastrin (Tocris, cat. 3006).
[…]
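Note: spheroids exposed to drugs for seven days.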
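Throughout, for viability, T/C: 100% = DMSO vehicle control viability.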

`Cc1cnc(CNC(=O)c2c(=O)c3ccc(N4CCCN(C)CC4)nc3n3c2sc2ccccc23)cn1` was tested, and the viability, T/C (compound 1 µM) was 85.5% [middle of 12 runs], the viability, T/C (compound 3.16 µM) was 74.2% [middle of 12 runs] and the viability, T/C (compound 10 µM) was 68.8% [middle of 12 runs]. The IC50 (compound alone, run of 02/20/2024) was > 10000 nM.
`COc1cc(C2c3cc4c(cc3C(OC3OC5COC(C)OC5C(O)C3O)C3COC(=O)C23)OCO4)cc(OC)c1O` (configuration not stated) was tested, and the viability, T/C (compound 0.0316 µM) was 94.5% and 86% and 83.5%, the viability, T/C (compound 0.1 µM) was 85% and 92% and 84.5% and the viability, T/C (compound 0.316 µM) was 88% and 89.3% and 89.8%. For the same molecule, the viability, T/C (compound 1 µM) was 81.9% and 83.7% and 91%, the viability, T/C (compound 3.16 µM) was 99% and 101% and 88.6% and the viability, T/C (compound 10 µM) was 92.4% and 79.9% and 85%. For the same molecule, the IC50 (curve of compound) was > 10000 nM.
For `O=C(c1cc(Cc2n[nH]c(=O)c3ccccc23)ccc1F)N1CCN(C(=O)C2CC2)CC1`, the viability, T/C (compound 0.0316 µM) was 98.7% and 82% and 96.7%, the viability, T/C (compound 0.1 µM) was 74.7% and 85.1% and 87.7% and the viability, T/C (compound 0.316 µM) was 99.8% and 90.6% and 79%. The viability, T/C (compound 1 µM) was 93.7% and 103% and 84.8%, the viability, T/C (compound 3.16 µM) was 82.7% and 91.9% and 88% and the viability, T/C (compound 10 µM) was 94.1% and 79.9% and 97.9%. The IC50 (curve of compound) was > 10000 nM.
In the case of `CCc1c2c(nc3ccc(O)cc13)-c1cc3c(c(=O)n1C2)COC(=O)[C@]3(O)CC`, the viability, T/C (compound 0.000999 µM) is reported as 98.6% and 89.7% and 104%, the viability, T/C (compound 0.00316 µM) is reported as 93.7% and 94.5% and 92.8% and the viability, T/C (compound 0.00999 µM) is reported as 120% and 88.8% and 82.7%. For the same molecule, the viability, T/C (compound 0.0316 µM) was 89.3% and 117% and 90.7%, the viability, T/C (compound 0.0999 µM) was 98.1% and 103% and 110% and the viability, T/C (compound 0.316 µM) was 92.2% and 108% and 95.1%. The IC50 (curve of compound) was > 316 nM.
In the case of `Cn1ncnc1[C@H]1c2n[nH]c(=O)c3cc(F)cc(c23)N[C@@H]1c1ccc(F)cc1` + CN(C)c1ccc(Nc2c3ccc(NC(=O)CCN4CCCC4)cc3nc3cc(NC(=O)CCN4CCCC4)ccc23)cc1, the IC50 (curve of first compound, second compound 0.0316 µM) is reported as > 316 nM, the IC50 (curve of first compound, second compound 0.1 µM) is reported as > 316 nM and the IC50 (curve of first compound, second compound 0.316 µM) is reported as > 316 nM. The IC50 (curve of first compound, second compound 1 µM) was > 316 nM, the IC50 (curve of first compound, second compound 3.16 µM) was > 316 nM and the IC50 (curve of first compound, second compound 10 µM) was < 0.999 nM. The viability, T/C (second compound 0.0316 µM, first compound 0.000999 µM) was 81.5%, the viability, T/C (second compound 0.0316 µM, first compound 0.00316 µM) was 96.6% and the viability, T/C (second compound 0.0316 µM, first compound 0.00999 µM) was 85.2%. The viability, T/C (second compound 0.0316 µM, first compound 0.0316 µM) was 88.2%, the viability, T/C (second compound 0.0316 µM, first compound 0.0999 µM) was 94.6% and the viability, T/C (second compound 0.0316 µM, first compound 0.316 µM) was 97.8%. It also gave a viability, T/C (second compound 0.1 µM, first compound 0.000999 µM) of 90.3%, a viability, T/C (second compound 0.1 µM, first compound 0.00316 µM) of 81.3% and a viability, T/C (second compound 0.1 µM, first compound 0.00999 µM) of 90.7%. The viability, T/C (second compound 0.1 µM, first compound 0.0316 µM) was 84.7%, the viability, T/C (second compound 0.1 µM, first compound 0.0999 µM) was 70.4% and the viability, T/C (second compound 0.1 µM, first compound 0.316 µM) was 64.3%. It also gave a viability, T/C (second compound 0.316 µM, first compound 0.000999 µM) of 68%, a viability, T/C (second compound 0.316 µM, first compound 0.00316 µM) of 62.4% and a viability, T/C (second compound 0.316 µM, first compound 0.00999 µM) of 69.6%. For the same molecule, the viability, T/C (second compound 0.316 µM, first compound 0.0316 µM) was 61.3%, the viability, T/C (second compound 0.316 µM, first compound 0.0999 µM) was 61.9% and the viability, T/C (second compound 0.316 µM, first compound 0.316 µM) was 67.4%. The viability, T/C (second compound 1 µM, first compound 0.000999 µM) was 57.5%, the viability, T/C (second compound 1 µM, first compound 0.00316 µM) was 51% and the viability, T/C (second compound 1 µM, first compound 0.00999 µM) was 42.3%. For the same molecule, the viability, T/C (second compound 1 µM, first compound 0.0316 µM) was 58.1%, the viability, T/C (second compound 1 µM, first compound 0.0999 µM) was 48% and the viability, T/C (second compound 1 µM, first compound 0.316 µM) was 52.8%. It also gave a viability, T/C (second compound 3.16 µM, first compound 0.000999 µM) of 62.4%, a viability, T/C (second compound 3.16 µM, first compound 0.00316 µM) of 60.7% and a viability, T/C (second compound 3.16 µM, first compound 0.00999 µM) of 54.5%. The viability, T/C (second compound 3.16 µM, first compound 0.0316 µM) was 60.7%, the viability, T/C (second compound 3.16 µM, first compound 0.0999 µM) was 59.9% and the viability, T/C (second compound 3.16 µM, first compound 0.316 µM) was 52.7%. It also gave a viability, T/C (second compound 10 µM, first compound 0.000999 µM) of 47.2%, a viability, T/C (second compound 10 µM, first compound 0.00316 µM) of 43.1% and a viability, T/C (second compound 10 µM, first compound 0.00999 µM) of 55.8%. The viability, T/C (second compound 10 µM, first compound 0.0316 µM) was 47.6%, the viability, T/C (second compound 10 µM, first compound 0.0999 µM) was 57.1% and the viability, T/C (second compound 10 µM, first compound 0.316 µM) was 54.2%.
